We go through four molecules from patent publication US6432939B1, “17a-hydroxy-4-androstene-3-one and derivatives thereof” (priority 1999, dated 2002).

Each structure is given as a SMILES string.

The subject of one assay is Sertoli cells. The experiment in a line: inhibin-B secretion by Sertoli cells (inhibin-B dimer assay, Serotec). The class given is cell-based, Wistar rats.
In assay [1] the test system is epididymal and prostatic 5α-reductase. The following applies: Monsalve 1977; Starka 1989; cited from earlier work.
In another assay the test system is FSH levels in the plasma. The following applies: depending on its dose; Bicikova 1993; cited from earlier work.

Method for Sertoli cells: The in-vitro stimulating effect on inhibin-B generation was measured using inhibin-B dimer assays by Serotec, Oxford, UK. […] The difference between the released inhibin-B quantity with and without the test substance expresses the efficacy of the respective test substance.
The substances were tested for their stimulating effect on inhibin-B secretion in an in-vitro model using Sertoli cells originating from Wistar rats and cultivated for up to 4 days.
Wistar rats that were 18 days old were killed using CO2; their testicles were collected and mechanically chopped up using a surgical knife. The resulting cell pulp was enzymatically disintegrated with collagenase II, hyaluronidase, and DNase using the following method: The cell pulp was digested for 15 minutes at 37° C. in 20 ml of Dulbecco's Modified Essential Medium (DMEM) containing 20 mg of collagenase II; subsequently, it was sedimented for 7 minutes at room temperature. The supernatant was discarded. The remaining pellet was resuspended in DMEM, then sedimented again for 7 minutes. The next steps were a second decomposition for 30 minutes at 37° C. in 20 ml of DMEM containing 40 mg of collagenase II, 40 mg of hyaluronidase, and 0.1 mg of DNase, and a centrifugation step at 500 rpm. After washing in DMEM without additives and another centrifugation step, the pellet was a third time enzymatically disintegrated for 30 minutes at 37° C. in 20 ml of DMEM containing 40 mg of collagenase II, 40 mg of hyaluronidase and 0.1 mg of DNase, then centrifuged at 1,000 rpm. The pellet was then resuspended, washed once in DMEM without additives, and finally sublimated with 100 U/ml of penicillin, 100 μg/ml of streptomycin, 5 μg/ml of human transferrin, 2 μg/ml of insulin, 50 ng/ml of vitamin A (all from Sigma Co.), 200 ng/ml of vitamin E (Merck Co.), and 3 mg/ml of cytosine arabinoside (Sigma Co.) (DMEM-Z) and sowed in 24-well microtiter plates. After 48 hours, the cultivated cells were given hypotonic treatment using 20 mM of Tris-HCl (pH 7.4) to remove residual gametes, then the medium was changed into DMEM-Z.
1 ml of biological sample containing 10^6 Sertoli cells in 990 ml of DMEM-Z and test substances at a concentration range from 0.1 nM to 1 μM, each dissolved in 10 μl of absolute ethanol (1% w/v of the total batch) was incubated for 48 hours at 34° C. and 5% CO2. The culture supernatant was then decanted from the cells, frozen at −20° C. and kept until the inhibin-B level was determined.
0.1 ml of culture supernatant was mixed with 0.05 ml of SDS of the inhibin-B assay (Serotec, Oxford, UK) in 1.8 ml Eppendorf reaction vessels and heated for 3 minutes to 100° C. After the batch had cooled down, 0.1 ml of assay diluent and 0.05 ml of a 6% H2O2 solution were added, intermixed, then incubated for 30 minutes at room temperature.
80 ml of the above reaction mixture and 80 ml of the 7 inhibin-B standards for creating a calibration curve contained in the assay were pipetted into the wells of the microtiter plate contained in the assay and allowed to incubate at room temperature overnight. Finally the wells were washed 3 times with an inhibin washing buffer.
The content of the alkaline phosphatase-conjugated antibody against human inhibin-B contained in the assay was taken up in 6 ml of assay diluent, and 0.05 ml of this solution were pipetted into the wells and incubated for 3 hours at room temperature. […]

`C[C@]12CC[C@H]3[C@@H](CCC4=CC(=O)CC[C@@]43C)[C@@H]1CC[C@@H]2O` [testosterone]: the “inhibin-B secretion after adding steroids from natural sources” value (shortened to “inhibin-B secretion”) with Sertoli cells (Sertoli cell culture) is “not influenced”.

As to `C[C@]12CCC(=O)C[C@@H]1CC[C@@H]1[C@@H]2CC[C@]2(C)[C@@H](O)CC[C@@H]12` [dihydrotestosterone], the “inhibin-B secretion” value in the assay on Sertoli cells (Sertoli cell culture) is reported as “not influenced”.

As to `CC(=O)[C@H]1CC[C@H]2[C@@H]3CCC4=CC(=O)CC[C@]4(C)[C@H]3CC[C@]12C` [progesterone], in the assay with Sertoli cells (Sertoli cell culture), the “inhibin-B secretion” value is on record as “not influenced”.

With `C[C@]12CC[C@H]3[C@@H](CCC4=CC(=O)CC[C@@]43C)[C@@H]1CC[C@H]2O` [17α-hydroxy-4-androstene-3-one], the “inhibin-B levels expressed from the culture supernatant as compared to the control tests” value in the assay with Sertoli cells (Sertoli cell culture, incubation time of 44 and 52 hours, FIG. 2 (EpiT 1 uM)) is “significantly increased”. The “increase of inhibin-B levels: concentration range of particularly striking effect” value with Sertoli cells (epitestosterone concentrations in the range from 10 nM to 1 pM) is recorded as “particularly striking”. For the same molecule, the “inhibition of epididymal and prostatic 5α-reductase” value in assay [1] is listed as “inhibits”. The “effect on FSH levels in the plasma” value in the assay on FSH levels in the plasma was “either an inhibiting or an increasing effect”.
